Earlier results in patent US4430326A (University Patents, Inc., priority 1981, dated 1984).

What was measured:
[1] = test system: glycogenolytic stimulation; details: Cote, et al.
adenylate cyclase system = details: literature reports

Row | reported action on adenylate cyclase activity (agonist / antagonist) (adenylate cyclase system) | Substance | reported action toward glycogenolytic stimulation [1]
1 | – | N^α -trinitrophenyl glucagon | partial agonist
2 | agonists | N^α,N^ε -di(trinitrophenyl)-glucagon | –
3 | full agonist | [12-homoargine]glucagon | –
